Assay results: ChEMBL document CHEMBL3632505, “Forsythoneosides A-D, Neuroprotective Phenethanoid and Flavone Glycoside Heterodimers from the Fruits of Forsythia suspensa” (2015)

What was measured:
PC-12 [1] = test: Neuroprotective activity against rotenone-induced cell damage in rat PC12 cells assessed as increase in cell viability after 48 hrs by MTT assay; type: functional, cell-based
PC-12 [2] = test: Neuroprotective activity against rotenone-induced cell damage in rat PC12 cells assessed as cell viability at 10 uM after 48 hrs by MTT assay (reference value: 53.9 +/- 7.1%); type: functional; conditions: for viability at 10 µM: Rattus norvegicus, PC-12, 48 h, read-out: Activity
PC-12 [3] = test: Neuroprotective activity against rotenone-induced cell damage in rat PC12 cells assessed as cell viability at 1 uM after 48 hrs by MTT assay (reference value: 53.9 +/- 7.1%); type: functional; conditions: for viability at 1 µM: Rattus norvegicus, PC-12, 48 h, read-out: Activity
PC-12 [4] = test: Neuroprotective activity against rotenone-induced cell damage in rat PC12 cells assessed as cell viability at 0.1 uM after 48 hrs by MTT assay (reference value: 53.9 +/- 7.1%); type: functional; conditions: for viability at 0.1 µM: Rattus norvegicus, PC-12, 48 h, read-out: Activity

| Structure (SMILES) | Activity (PC-12 [1]) | viability at 10 µM (PC-12 [2]) | viability at 1 µM (PC-12 [3]) | viability at 0.1 µM (PC-12 [4]) | other results |
| --- | --- | --- | --- | --- | --- |
| C[C@@H]1O[C@@H](OC[C@H]2O[C@@H](Oc3c(-c4ccc(O)c(O)c4)oc4c(-c5cc(O)c(O)cc5CCO[C@@H]5O[C@H](CO[C@@H]6O[C@@H](C)[C@H](O)[C@@H](O)[C@H]6O)[C@@H](OC(=O)/C=C/c6ccc(O)c(O)c6)[C@H](O)[C@H]5O)c(O)cc(O)c4c3=O)[C@H](O)[C@@H](O)[C@@H]2O)[C@H](O)[C@H](O)[C@H]1O (stereo in doubt; 3) [listing 1 of 2 here] | Dose-dependent effect |  |  |  |  |
| C[C@@H]1O[C@@H](OC[C@H]2O[C@@H](Oc3c(-c4ccc(O)c(O)c4)oc4c5c(cc(O)c4c3=O)Oc3cc(O)c(O)cc3[C@H]5CO[C@@H]3O[C@H](CO[C@@H]4O[C@@H](C)[C@H](O)[C@@H](O)[C@H]4O)[C@@H](OC(=O)/C=C/c4ccc(O)c(O)c4)[C@H](O)[C@H]3O)[C@H](O)[C@@H](O)[C@@H]2O)[C@H](O)[C@H](O)[C@H]1O | Dose-dependent effect | 81.1% | 59.2% | 55.8% |  |
| C[C@@H]1O[C@@H](OC[C@H]2O[C@@H](Oc3c(-c4ccc(O)c(O)c4)oc4c(-c5cc(O)c(O)cc5CCO[C@@H]5O[C@H](CO[C@@H]6O[C@@H](C)[C@H](O)[C@@H](O)[C@H]6O)[C@@H](OC(=O)/C=C/c6ccc(O)c(O)c6)[C@H](O)[C@H]5O)c(O)cc(O)c4c3=O)[C@H](O)[C@@H](O)[C@@H]2O)[C@H](O)[C@H](O)[C@H]1O (stereo in doubt; 4) [listing 1 of 2 here] | Dose-dependent effect |  |  |  |  |
| COC1=C(OC)C(=O)C(C/C=C(\C)CC/C=C(\C)CC/C=C(\C)CC/C=C(\C)CC/C=C(\C)CC/C=C(\C)CC/C=C(\C)CC/C=C(\C)CC/C=C(\C)CCC=C(C)C)=C(C)C1=O [UBIDECARENONE] |  | 59% |  |  |  |
| C[C@@H]1O[C@@H](OC[C@H]2O[C@@H](Oc3c(-c4ccc(O)c(O)c4)oc4c(-c5cc(O)c(O)cc5CCO[C@@H]5O[C@H](CO[C@@H]6O[C@@H](C)[C@H](O)[C@@H](O)[C@H]6O)[C@@H](OC(=O)/C=C/c6ccc(O)c(O)c6)[C@H](O)[C@H]5O)c(O)cc(O)c4c3=O)[C@H](O)[C@@H](O)[C@@H]2O)[C@H](O)[C@H](O)[C@H]1O (stereo in doubt; 3) [listing 2 of 2 here] |  |  | 64% | 54.3% | Activity (PC-12 [2]): 93.2% |
| C[C@@H]1O[C@@H](OC[C@H]2O[C@@H](OCCc3ccc(O)c(O)c3)[C@H](O)[C@@H](O)[C@@H]2OC(=O)/C=C/c2ccc(O)c(O)c2)[C@H](O)[C@H](O)[C@H]1O [FORSYTHIASIDE] |  | 60.4% |  |  |  |
| O=C(/C=C/c1ccc(O)c(O)c1)O[C@H]1[C@H](O)[C@@H](O)[C@H](OCCc2ccc(O)c(O)c2)O[C@@H]1CO[C@@H]1OC[C@@H](O)[C@H](O)[C@H]1O |  | 56.2% |  |  |  |
| C[C@@H]1O[C@@H](OC[C@H]2O[C@@H](Oc3c(-c4ccc(O)c(O)c4)oc4c(-c5cc(O)c(O)cc5CCO[C@@H]5O[C@H](CO[C@@H]6O[C@@H](C)[C@H](O)[C@@H](O)[C@H]6O)[C@@H](OC(=O)/C=C/c6ccc(O)c(O)c6)[C@H](O)[C@H]5O)c(O)cc(O)c4c3=O)[C@H](O)[C@@H](O)[C@@H]2O)[C@H](O)[C@H](O)[C@H]1O (stereo in doubt; 4) [listing 2 of 2 here] |  | 96.2% |  |  | Activity (PC-12 [3]): 75.5%; Activity (PC-12 [4]): 67.9% |
| C[C@@H]1O[C@@H](OC[C@H]2O[C@@H](Oc3c(-c4ccc(O)c(O)c4)oc4c5c(cc(O)c4c3=O)Oc3cc(O)c(O)cc3[C@@H]5CO[C@@H]3O[C@H](CO[C@@H]4O[C@@H](C)[C@H](O)[C@@H](O)[C@H]4O)[C@@H](OC(=O)/C=C/c4ccc(O)c(O)c4)[C@H](O)[C@H]3O)[C@H](O)[C@@H](O)[C@@H]2O)[C@H](O)[C@H](O)[C@H]1O | Dose-dependent effect | 91.2% | 75% | 70.1% |  |
| C[C@@H]1O[C@@H](OC[C@H]2O[C@@H](Oc3c(-c4ccc(O)c(O)c4)oc4cc(O)cc(O)c4c3=O)[C@H](O)[C@@H](O)[C@@H]2O)[C@H](O)[C@H](O)[C@H]1O [RUTIN] |  | 67.9% |  |  |  |
